Results as given in article PMC7554340, “A Novel Dual-Targeted α-Helical Peptide With Potent Antifungal Activity Against Fluconazole-Resistant Candida albicans Clinical Isolates” (Frontiers in Microbiology, 2020).
Values after ≈ are worked out from the molar mass of the structure shown. Where two headings read alike, the source gives them in different places. No end group written: not given here.

Key:
C. albicans sp3876 [1] = assay: microbe, parasite or virus in culture; conditions: Candida albicans, SP3876, 48 h
C. albicans 56452 [2] = assay: microbe, parasite or virus in culture; conditions: Candida albicans, 56452, 48 h
C. albicans 14936 [3] = assay: microbe, parasite or virus in culture; conditions: Candida albicans, 14936, 48 h
C. albicans 17546 [4] = assay: microbe, parasite or virus in culture; conditions: Candida albicans, 17546, 48 h
C. albicans 56214 [5] = assay: microbe, parasite or virus in culture; conditions: Candida albicans, 56214, 48 h
C. albicans sp3902 [6] = assay: microbe, parasite or virus in culture; conditions: Candida albicans, SP3902, 48 h
C. albicans sp3931 [7] = assay: microbe, parasite or virus in culture; conditions: Candida albicans, SP3931, 48 h
[8] = test system: C. parapsilosis cgmcc 2.3989; assay: Antifungal activity assay (broth microdilution, MIC/MFC); assay type: cell-based, Candida parapsilosis; conditions: for MFC: 50 μl of MIC wells plated on YPD agar, 28°C, lowest concentration that completely killed fungal cells, consensus of at least three independent experiments
[9] = test system: C. tropicalis cgmcc 2.1975; assay: as above; assay type: cell-based, Candida tropicalis; conditions: for MFC: 50 μl of MIC wells plated on YPD agar, 28°C, lowest concentration that completely killed fungal cells, consensus of at least three independent experiments
C. albicans cgmcc 2.2086 = assay: as above; assay type: cell-based, Candida albicans; conditions: for MFC: 50 μl of MIC wells plated on YPD agar, 28°C, lowest concentration that completely killed fungal cells, consensus of at least three independent experiments
C. albicans sp3903 [10] = assay: microbe, parasite or virus in culture; conditions: Candida albicans, SP3903, 48 h
C. albicans 58288 [11] = assay: microbe, parasite or virus in culture; conditions: Candida albicans, 58288, 48 h
IPEC-J2 cells = conditions: 24 h
C. albicans sp3902 [12] = conditions: sp3902, 48 h; for MIC: pH 7
C. albicans sp3876 [13] = conditions: sp3876, 48 h; for MIC: pH 7
C. albicans 14936 [14] = conditions: 14936, 48 h; for MIC: pH 7
C. albicans 17546 [15] = conditions: 17546, 48 h; for MIC: pH 7
C. albicans 56214 [16] = conditions: 56214, 48 h; for MIC: pH 7
C. albicans sp3931 [17] = conditions: sp3931, 48 h; for MIC: pH 7
human erythrocytes = conditions: red cells of human, 1 h
C. albicans 56452 [18] = conditions: 56452, 48 h; for MIC: pH 7
PMEC cells = conditions: 24 h
C. albicans 58288 [19] = conditions: 58288, 48 h; for MIC: pH 7
C. albicans sp3903 [20] = conditions: sp3903, 48 h; for MIC: pH 7

Q: What does the source list for C[C@@H]1[C@H](O)[C@@H](C)/C=C/C=C/C=C/C=C/C=C/C=C/C=C/[C@H](O[C@@H]2O[C@H](C)[C@@H](O)[C@H](N)[C@@H]2O)C[C@@H]2O[C@](O)(C[C@@H](O)C[C@@H](O)[C@H](O)CC[C@@H](O)C[C@@H](O)CC(=O)O[C@H]1C)C[C@H](O)[C@H]2C(=O)O [AmB, amphotericin B]?
A: MFC (C. albicans sp3876 [1]): 0.5 µM (≈ 0.462 µg/mL); MIC (C. albicans sp3876 [1]; pH 7): 0.25 µM (≈ 0.231 µg/mL); MFC (C. albicans 56452 [2]): 2 µM (≈ 1.85 µg/mL); MIC (C. albicans 56452 [2]; pH 7): 1 µM (≈ 0.924 µg/mL); MFC (C. albicans 14936 [3]): 0.5 µM (≈ 0.462 µg/mL); MIC (C. albicans 14936 [3]; pH 7): 0.25 µM (≈ 0.231 µg/mL); MFC (C. albicans 17546 [4]): 1 µM (≈ 0.924 µg/mL); MIC (C. albicans 17546 [4]; pH 7): 0.25 µM (≈ 0.231 µg/mL); MFC (C. albicans 56214 [5]): 2 µM (≈ 1.85 µg/mL); MIC (C. albicans 56214 [5]; pH 7): 1 µM (≈ 0.924 µg/mL); MFC (C. albicans sp3902 [6]): 1 µM (≈ 0.924 µg/mL); MIC (C. albicans sp3902 [6]; pH 7): 0.25 µM (≈ 0.231 µg/mL); MFC (C. albicans sp3931 [7]): 1 µM (≈ 0.924 µg/mL); MIC (C. albicans sp3931 [7]; pH 7): 0.25 µM (≈ 0.231 µg/mL); MFC ([8]; Lodderomyces parapsilosis, CGMCC2, 48 h): 2 µM (≈ 1.85 µg/mL); MIC ([8]; Lodderomyces parapsilosis, CGMCC2, broth microdilution, RPMI-MOPS pH 7.0, 28°C, 48 h, lowest concentration inhibiting 99% of growth (A492)): 2 µM (≈ 1.85 µg/mL); MFC ([9]; Candida tropicalis, CGMCC2, 48 h): 2 µM (≈ 1.85 µg/mL); MIC ([9]; Candida tropicalis, CGMCC2, broth microdilution, RPMI-MOPS pH 7.0, 28°C, 48 h, lowest concentration inhibiting 99% of growth (A492)): 1 µM (≈ 0.924 µg/mL); MFC (C. albicans cgmcc 2.2086; Candida albicans, CGMCC2, 48 h): 1 µM (≈ 0.924 µg/mL); MIC (C. albicans cgmcc 2.2086; Candida albicans, CGMCC2, broth microdilution, RPMI-MOPS pH 7.0, 28°C, 48 h, lowest concentration inhibiting 99% of growth (A492)): 1 µM (≈ 0.924 µg/mL); MFC (C. albicans sp3903 [10]): 1 µM (≈ 0.924 µg/mL); MIC (C. albicans sp3903 [10]; pH 7): 0.13 µM (≈ 0.12 µg/mL); MFC (C. albicans 58288 [11]): 1 µM (≈ 0.924 µg/mL); MIC (C. albicans 58288 [11]; pH 7): 0.5 µM (≈ 0.462 µg/mL)

Q: For KIGKFLLFKGIKKIGKFL-NH2 [KF3], which IC50 (IPEC-J2 cells) is on record?
A: 48.5 µM

Q: What about the MFC (C. albicans sp3902 [12]) of the same compound?
A: 16 µM

Q: What about the MIC (C. albicans sp3902 [12]) of the same compound?
A: 16 µM

Q: And the MFC (C. albicans sp3876 [13])?
A: 64 µM

Q: What about the MIC (C. albicans sp3876 [13]) of the same compound?
A: 64 µM

Q: What about the MFC (C. albicans 14936 [14]) of the same compound?
A: 64 µM

Q: And the MIC (C. albicans 14936 [14])?
A: 64 µM

Q: And the MFC (C. albicans 17546 [15])?
A: 64 µM

Q: And the MIC (C. albicans 17546 [15])?
A: 64 µM

Q: What about the MFC (C. albicans 56214 [16]) of the same compound?
A: 16 µM

Q: And the MIC (C. albicans 56214 [16])?
A: 16 µM

Q: What about the MFC ([8]; 48 h) of the same compound?
A: 32 µM

Q: And the MIC ([8]; cgmcc 2.3989, 48 h, pH 7)?
A: 32 µM

Q: What about the MFC (C. albicans sp3931 [17]) of the same compound?
A: 32 µM

Q: And the MIC (C. albicans sp3931 [17])?
A: 32 µM

Q: And the HC10 (human erythrocytes)?
A: >64 µM

Q: And the MFC ([9]; 48 h)?
A: 8 µM

Q: And the MIC ([9]; cgmcc 2.1975, 48 h, pH 7)?
A: 8 µM

Q: And the MFC (C. albicans cgmcc 2.2086; 48 h)?
A: 32 µM

Q: And the MIC (C. albicans cgmcc 2.2086; cgmcc 2.2086, 48 h, pH 7)?
A: 32 µM

Q: And the MFC (C. albicans 56452 [18])?
A: 16 µM

Q: And the MIC (C. albicans 56452 [18])?
A: 16 µM

Q: And the IC50 (PMEC cells)?
A: 60 µM

Q: What about the MFC (C. albicans 58288 [19]) of the same compound?
A: 32 µM

Q: And the MIC (C. albicans 58288 [19])?
A: 32 µM

Q: And the MFC (C. albicans sp3903 [20])?
A: 32 µM

Q: What about the MIC (C. albicans sp3903 [20]) of the same compound?
A: 32 µM

Q: And the “cytotoxicity at 64 μM (in words)” value (IPEC-J2 and PMEC cells)?
A: sharp rise in cytotoxicity

Q: KIGKVL-NH2 [KV] was tested. Which MFC (C. albicans sp3902 [12]) did it give?
A: >64 µM

Q: And the MIC (C. albicans sp3902 [12])?
A: >64 µM

Q: And the MFC (C. albicans sp3876 [13])?
A: >64 µM

Q: What about the MIC (C. albicans sp3876 [13]) of the same compound?
A: >64 µM

Q: And the MFC (C. albicans 14936 [14])?
A: >64 µM

Q: What about the MIC (C. albicans 14936 [14]) of the same compound?
A: >64 µM

Q: And the MFC (C. albicans 17546 [15])?
A: >64 µM

Q: What about the MIC (C. albicans 17546 [15]) of the same compound?
A: >64 µM

Q: What about the MFC (C. albicans 56214 [16]) of the same compound?
A: >64 µM

Q: And the MIC (C. albicans 56214 [16])?
A: >64 µM

Q: What about the MFC ([8]; 48 h) of the same compound?
A: >64 µM

Q: What about the MIC ([8]; cgmcc 2.3989, 48 h, pH 7) of the same compound?
A: >64 µM

Q: And the MFC (C. albicans sp3931 [17])?
A: >64 µM

Q: What about the MIC (C. albicans sp3931 [17]) of the same compound?
A: >64 µM

Q: What about the MFC ([9]; 48 h) of the same compound?
A: >64 µM

Q: And the MIC ([9]; cgmcc 2.1975, 48 h, pH 7)?
A: >64 µM

Q: What about the MFC (C. albicans cgmcc 2.2086; 48 h) of the same compound?
A: >64 µM

Q: What about the MIC (C. albicans cgmcc 2.2086; cgmcc 2.2086, 48 h, pH 7) of the same compound?
A: >64 µM

Q: What about the MFC (C. albicans 56452 [18]) of the same compound?
A: >64 µM

Q: What about the MIC (C. albicans 56452 [18]) of the same compound?
A: >64 µM

Q: And the MFC (C. albicans 58288 [19])?
A: >64 µM

Q: And the MIC (C. albicans 58288 [19])?
A: >64 µM

Q: What about the MFC (C. albicans sp3903 [20]) of the same compound?
A: >64 µM

Q: What about the MIC (C. albicans sp3903 [20]) of the same compound?
A: >64 µM
